Experimental data from US10975092B2, “Pyrimidine seven-membered-ring compounds, preparation method therefor, pharmaceutical composition thereof, and uses thereof” (priority 2016, dated 2021).

Assays:
[1] = test system: DSS-treated wild type mice; assay: Intestinal repair in DSS-induced intestinal injury mouse model; type: in vivo
Experimental: 8-10 week old wild type mice were fed with water containing 2.5% DSS (MW 36-50 kDa, Cat. #160110, MP Biochemical) for 7 days, then switch to conventional drinking water. […] Throughout the experiment, the body weight of mice was weighed every day at a fixed time and calculate the ratio of the weight and the weight before DSS feeding. […] The DAI values were calculated as follows: the integrity of the stool (value 0-3, where 0: full dried fecal pellets; 1: soft particles; 2: loose, wet stool; 3: diarrhea); detection of intestinal bleeding with tolidine (o-tolidine) (value 0-3, where 0: detection reagent was added for 2 minutes, sample no color; 1: detection reagent was added, the sample within 10 seconds from light blue to blue; 2: after adding detection reagents, samples gradually changed from light brown to brown clear blue and a visible color in the feces; 3: after adding detection reagents, samples rapidly becoming brownish blue, significant blood and bleeding in a anus and feces. The body weight change in mice and DAI values were recorded for indicating the degree of intestinal injury repair.

recombinant Mst1 = target: T1, recombinant Mst1 (Homo sapiens, UniProt Q13043); assay: Inhibition of Mst1 kinase activity, ELISA of Mob1 substrate phosphorylation; type: biochemical; settings: MST1 IC50, recombinant Mst1 11 nM; ATP 6.7 gIVI; GST-Mob1a substrate; 30° C. 15 min
T1 sequence (Q13043 1-487): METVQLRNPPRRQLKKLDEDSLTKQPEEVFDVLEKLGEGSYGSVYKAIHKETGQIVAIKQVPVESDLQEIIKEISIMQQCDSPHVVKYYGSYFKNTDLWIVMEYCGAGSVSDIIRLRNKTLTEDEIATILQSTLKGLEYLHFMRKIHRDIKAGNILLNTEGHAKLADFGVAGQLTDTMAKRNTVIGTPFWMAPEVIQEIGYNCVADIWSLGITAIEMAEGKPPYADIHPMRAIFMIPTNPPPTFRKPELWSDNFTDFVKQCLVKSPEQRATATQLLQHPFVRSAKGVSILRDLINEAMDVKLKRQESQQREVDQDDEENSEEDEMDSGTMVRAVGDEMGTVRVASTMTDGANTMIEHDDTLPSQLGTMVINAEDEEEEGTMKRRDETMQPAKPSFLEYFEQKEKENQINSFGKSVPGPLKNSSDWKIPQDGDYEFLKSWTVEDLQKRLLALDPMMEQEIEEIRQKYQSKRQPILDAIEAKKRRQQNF
Experimental: (§1) We adopt a specific ELISA (Enzyme-linked immunosorbent assay) assay for measuring the biochemical activity (FIG. 1).
(§2) Specific methods are as follows:
(§3) 1. The substrate was diluted with purified recombinant GST-Mobla 200 nM in coating buffer, added to 96-well plates (Nalge Nunc International, Denmark), coated for overnight at 4° C., washed nextday three times with rinsing solution;
(§4) a. A kinase reaction buffer;
(§5) c. compound (dissolved in DMSO, containing not more than 1% of the total volume of the reaction);
(§6) Control Group Containing No ATP or Kinase;
(§7) 3. The reaction solution was poured to terminate the kinase reaction, and washed 4 times with rinse solution, 5 minutes each wash;
(§8) 4. Add 200 μL, per well of the blocking solution, shaking for 1 hour at room temperature, washed 4 times with rinsing solution;
(§9) 7. Add TMB chromogenic solution (Biolegend, Cat.B200119, B200120). After the color reaction to a certain extent, add to each well 100 μL, of 2M H2SO4 to terminate the reaction;
(§10) 8. […] Each set of three parallel experiments, the negative control is a solution with a final concentration of 1% DMSO, the control is the reaction system containing no ATP. […] The reagents are as follows: Coating Buffer: 0.1M NaHCO 3, 0.033M Na2CO3, pH 9.5 Rinse solution: 0.05% Tween-20 in PBS Reaction buffer: 40 mM of Hepes-NaOH (pH 7.4), 10 mM of MgCl2, 1 mM of dithiothreitol (DTT), 1 mM of NaF, 1 mM of Na3VO4, 1 mM of β-glycerophosphate Blocking solution: 1% BSA dissolved in PBS Compound Inhibition of Kinase Activity

[2] = test system: wild type mice after hepatectomy; assay: Liver regeneration after partial liver resection (hepatectomy) in mice; type: in vivo; settings: about 2/3 hepatectomy, 1 mg/kg body weight intraperitoneally twice daily, 1-7 days
Experimental: Student's t-test in comparing drug-treated group and control group, *P<0.05, ***P<0.001.
8-10 week old wild type mice were anesthetized with intraperitoneal pentobarbital (80 mg/kg body weight). Hepatectomy was performed to remove left rear and intermediate liver lobes, about ⅔ of the entire liver. […] Mice after hepatectomy of 1, 2, 3, 4, 5, 6, or 7 days were sacrificed. Mouse body weight and liver weight are recorded and used to calculate the weight ratio of the liver (FIG. 2a). Liver tissue section used in immunohistochemistry to detect proliferating hepatocytes (of Ki67-positive) percentage.

recombinant MST2 = target: T2, recombinant MST2 (Homo sapiens, UniProt Q13188); assay: Inhibition of Mst2 kinase activity, ELISA of Mob1 substrate phosphorylation; type: biochemical; settings: MST2 IC50, 3.7 nM recombinant MST2; ATP 11.2 gIVI; GST-Mob1a substrate; 30° C. 15 min
T2 sequence (Q13188 1-491): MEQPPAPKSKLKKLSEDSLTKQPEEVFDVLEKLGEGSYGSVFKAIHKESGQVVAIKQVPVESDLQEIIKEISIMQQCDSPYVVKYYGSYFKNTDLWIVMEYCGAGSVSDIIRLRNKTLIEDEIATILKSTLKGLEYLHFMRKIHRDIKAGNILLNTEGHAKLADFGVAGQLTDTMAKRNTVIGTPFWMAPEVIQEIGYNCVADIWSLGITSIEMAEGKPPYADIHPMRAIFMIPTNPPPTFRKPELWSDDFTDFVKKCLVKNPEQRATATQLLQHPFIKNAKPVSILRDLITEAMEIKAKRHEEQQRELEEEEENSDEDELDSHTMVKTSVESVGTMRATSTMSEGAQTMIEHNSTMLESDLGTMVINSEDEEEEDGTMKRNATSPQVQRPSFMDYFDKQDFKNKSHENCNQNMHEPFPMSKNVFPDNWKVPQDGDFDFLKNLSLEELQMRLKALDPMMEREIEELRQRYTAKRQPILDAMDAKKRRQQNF
Experimental: as §1, §2, §3, §4, §5, §6, §7, §8, §9, §10

`CN1C(=O)c2sccc2N(C)c2nc(Nc3ccc(S(N)(=O)=O)cc3)ncc21` [II-1] was tested, and the “Intestinal repair in DSS-induced intestinal injury model” value ([1]; 2.5% DSS in water 7 days, 1 mg/kg body weight injected once per day) was “promotes intestinal repair”, the “Body weight of DSS-treated mice” value ([1]; 2.5% DSS in water 7 days, 1 mg/kg once per day, FIG. 3a) was “significantly increase” and the “Intestinal injury clinical symptoms (disease activity index, DAI)” value ([1]; 2.5% DSS in water 7 days, 1 mg/kg once per day, FIG. 3b) was “slow the intestinal injury clinical symptoms”. The “Yap activity in intestinal epithelial cells (immunohistochemical staining)” value ([1]; day 8 after DSS water feeding, 1 mg/kg once per day, FIG. 3c) was “increases Yap activity”, the “Epithelial repair and cell proliferation (BrdU and Ki67 positive cells in intestinal tissue)” value ([1]; day 8 after DSS water feeding, 1 mg/kg once per day, FIG. 3c-e) was “promote epithelial repair and cell proliferation” and the IC50 (recombinant Mst1) was 140 nM. The “Liver regeneration after partial liver resection (liver/body weight ratio, Ki67-positive hepatocytes)” value [2] was “Effective in Promoting Liver Regeneration” and the IC50 (recombinant MST2) was 40 nM.

Work on `C=CS(=O)(=O)Nc1ccc(Nc2ncc3c(n2)N(C)c2ccsc2C(=O)N3C)cc1` [II-26] yielded an IC50 (recombinant Mst1) of 820 nM and an IC50 (recombinant MST2) of 410 nM.

Compound `CN1C(=O)c2sccc2N(C)c2nc(Nc3cn[nH]c3)ncc21` [II-28] has an IC50 (recombinant Mst1) of 540 nM and an IC50 (recombinant MST2) of 360 nM.

`CN1C(=O)c2sccc2N(C)c2nc(Nc3cnn(C(=O)CCl)c3)ncc21` [II-30] showed an IC50 (recombinant Mst1) of 810 nM and an IC50 (recombinant MST2) of 440 nM.

For `CN1C(=O)c2cccc3c2N(CC3)c2nc(Nc3ccc(NS(C)(=O)=O)cc3)ncc21` [IV-1], the IC50 (recombinant Mst1) was 6070 nM and the IC50 (recombinant MST2) was 3970 nM.

`CN1C(=O)c2cccc3c2N(CC3)c2nc(Nc3ccc(S(N)(=O)=O)cc3)ncc21` [IV-3] was tested, and the IC50 (recombinant Mst1) was 430 nM and the IC50 (recombinant MST2) was 1610 nM.
